Experimental findings from US11331369B2, “Endoparasitic depsipeptides” (Zoetis Services LLC, priority 2017, dated 2022) are described below.

For the assay, the system named is microfilariae of Dirofilaria immitis. The assay is described as follows: Dirofilaria immitis, Microfilaria (DiMF) In vitro Assay. The assay is classed as cell-based. As to conditions: 72 h, read-out: DiMF Minimum Effective Dose (MED), approximately 72 hours incubation, microfilariae assessed for survival or paralysis.
Turning to `CC(C)C[C@H]1C(=O)O[C@H](Cc2ccc(Cn3cc(COc4cccc(C#N)c4)nn3)cc2)C(=O)N(C)[C@@H](CC(C)C)C(=O)O[C@H](C)C(=O)N(C)[C@@H](CC(C)C)C(=O)O[C@H](Cc2ccccc2)C(=O)N(C)[C@@H](CC(C)C)C(=O)O[C@H](C)C(=O)N1C` [Example 10-23, 3-((1-(4-(((2R,5S,8R,11S,14R,17S,20R,23S)-14-benzyl-5,11,17,23-tetraisobutyl-4,8,10,16,20,22-hexamethyl-3,6,9,12,15,18,21,24-octaoxo-1,7,13,19-tetraoxa-4,10,16,22-tetraazacyclotetracosan-2-yl)methyl)benzyl)-1H-1,2,3-triazol-4-yl)methoxy)benzonitrile], the minimal effective concentration lay within 0.01 to 0.1 µM.

`Cc1nn(Cc2ccc(C[C@H]3OC(=O)[C@H](CC(C)C)N(C)C(=O)[C@@H](C)OC(=O)[C@H](CC(C)C)N(C)C(=O)[C@@H](Cc4ccc(Cn5cc(C#N)c(C)n5)cc4)OC(=O)[C@H](CC(C)C)N(C)C(=O)[C@@H](C)OC(=O)[C@H](CC(C)C)N(C)C3=O)cc2)cc1C#N` [Example 1b-135, 1,1′-(((((2R,5S,8R,11S,14R,17S,20R,23S)-5,11,17,23-tetraisobutyl-4,8,10,16,20,22-hexamethyl-3,6,9,12,15,18,21,24-octaoxo-1,7,13,19-tetraoxa-4,10,16,22-tetraazacyclotetracosane-2,14-diyl)bis(methylene))bis(4,1-phenylene))bis(methylene))bis(3-methyl-1H-pyrazole-4-carbonitrile)]: the minimal effective concentration is 0.001 to 0.01 µM.

Take `CCOc1cc(C)n(Cc2ccc(C[C@H]3OC(=O)[C@H](CC(C)C)N(C)C(=O)[C@@H](C)OC(=O)[C@H](CC(C)C)N(C)C(=O)[C@@H](Cc4ccc(Cn5nc(OCC)cc5C)cc4)OC(=O)[C@H](CC(C)C)N(C)C(=O)[C@@H](C)OC(=O)[C@H](CC(C)C)N(C)C3=O)cc2)n1` [Example 1b-159, (3S,6R,9S,12R,15S,18R,21S,24R)-6,18-bis(4-((3-ethoxy-5-methyl-1H-pyrazol-1-yl)methyl)benzyl)-3,9,15,21-tetraisobutyl-4,10,12,16,22,24-hexamethyl-1,7,13,19-tetraoxa-4,10,16,22-tetraazacyclotetracosan-2,5,8,11,14,17,20,23-octaone]: the minimal effective concentration was 0.01 to 0.1 µM. As to `CC(C)C[C@H]1C(=O)O[C@H](Cc2ccc(CN3CCN(S(C)(=O)=O)CC3)cc2)C(=O)N(C)[C@@H](CC(C)C)C(=O)O[C@H](C)C(=O)N(C)[C@@H](CC(C)C)C(=O)O[C@H](Cc2ccccc2)C(=O)N(C)[C@@H](CC(C)C)C(=O)O[C@H](C)C(=O)N1C` [Example 10-10, (3S,6R,9S,12R,15S,18R,21S,24R)-6-benzyl-3,9,15,21-tetraisobutyl-4,10,12,16,22,24-hexamethyl-18-(4-((4-(methylsulfonyl)piperazin-1-yl)methyl)benzyl)-1,7,13,19-tetraoxa-4,10,16,22-tetraazacyclotetracosan-2,5,8,11,14,17,20,23-octaone], the minimal effective concentration is 0.01 to 0.1 µM. `CC(C)C[C@H]1C(=O)O[C@H](Cc2ccc(Cn3cc(C(F)(F)F)cn3)cc2)C(=O)N(C)[C@@H](CC(C)C)C(=O)O[C@H](C)C(=O)N(C)[C@@H](CC(C)C)C(=O)O[C@H](Cc2ccccc2)C(=O)N(C)[C@@H](CC(C)C)C(=O)O[C@H](C)C(=O)N1C` [Example 2-20, (3S,6R,9S,12R,15S,18R,21S,24R)-6-benzyl-3,9,15,21-tetraisobutyl-4,10,12,16,22,24-hexamethyl-18-(4-((4-(trifluoromethyl)-1H-pyrazol-1-yl)methyl)benzyl)-1,7,13,19-tetraoxa-4,10,16,22-tetraazacyclotetracosan-2,5,8,11,14,17,20,23-octaone]: the minimal effective concentration is 0.01 to 0.1 µM.

For `CC(C)C[C@H]1C(=O)O[C@H](Cc2ccc(CN3CCS(=O)(=O)c4cccnc43)cc2)C(=O)N(C)[C@@H](CC(C)C)C(=O)O[C@H](C)C(=O)N(C)[C@@H](CC(C)C)C(=O)O[C@H](Cc2ccc(CN3CCS(=O)(=O)c4cccnc43)cc2)C(=O)N(C)[C@@H](CC(C)C)C(=O)O[C@H](C)C(=O)N1C` [Example 9-62, (3S,6R,9S,12R,15S,18R,21S,24R)-6,18-bis(4-((1,1-dioxido-2,3-dihydro-4H-pyrido[3,2-b][1,4]thiazin-4-yl)methyl)benzyl)-3,9,15,21-tetraisobutyl-4,10,12,16,22,24-hexamethyl-1,7,13,19-tetraoxa-4,10,16,22-tetraazacyclotetracosan-2,5,8,11,14,17,20,23-octaone], the minimal effective concentration lay in the range of 0.01 to 0.1 µM. In the case of `CC(C)C[C@H]1C(=O)O[C@H](Cc2cccc(Cn3cccn3)c2)C(=O)N(C)[C@@H](CC(C)C)C(=O)O[C@H](C)C(=O)N(C)[C@@H](CC(C)C)C(=O)O[C@H](Cc2cccc(Cn3cccn3)c2)C(=O)N(C)[C@@H](CC(C)C)C(=O)O[C@H](C)C(=O)N1C` [Example 4-1, (3S,6R,9S,12R,15S,18R,21S,24R)-6,18-bis(3-((1H-pyrazol-1-yl)methyl)benzyl)-3,9,15,21-tetraisobutyl-4,10,12,16,22,24-hexamethyl-1,7,13,19-tetraoxa-4,10,16,22-tetraazacyclotetracosan-2,5,8,11,14,17,20,23-octaone] it was 0.001 to 0.01 µM; in that of `Cc1ccn(Cc2ccc(C[C@H]3OC(=O)[C@H](CC(C)C)N(C)C(=O)[C@@H](C)OC(=O)[C@H](CC(C)C)N(C)C(=O)[C@@H](Cc4ccc(Cn5ccc(C)cc5=O)cc4)OC(=O)[C@H](CC(C)C)N(C)C(=O)[C@@H](C)OC(=O)[C@H](CC(C)C)N(C)C3=O)cc2)c(=O)c1` [Example 9-27, (3S,6R,9S,12R,15S,18R,21S,24R)-3,9,15,21-tetraisobutyl-4,6,10,16,18,22-hexamethyl-12,24-bis(4-((4-methyl-2-oxopyridin-1 (2H)-yl)methyl)benzyl)-1,7,13,19-tetraoxa-4,10,16,22-tetraazacyclotetracosan-2,5,8,11,14,17,20,23-octaone], 0.01 to 0.1 µM. The figure for `CC(C)C[C@H]1C(=O)O[C@H](Cc2ccc(Cn3ccnc3-c3ccccc3)cc2)C(=O)N(C)[C@@H](CC(C)C)C(=O)O[C@H](C)C(=O)N(C)[C@@H](CC(C)C)C(=O)O[C@H](Cc2ccc(Cn3ccnc3-c3ccccc3)cc2)C(=O)N(C)[C@@H](CC(C)C)C(=O)O[C@H](C)C(=O)N1C` [Example 6-11, (3S,6R,9S,12R,15S,18R,21S,24R)-3,9,15,21-tetraisobutyl-4,6,10,16,18,22-hexamethyl-12,24-bis(4-((2-phenyl-1H-imidazol-1-yl)methyl)benzyl)-1,7,13,19-tetraoxa-4,10,16,22-tetraazacyclotetracosan-2,5,8,11,14,17,20,23-octaone] is 0.01 to 0.1 µM; for `CC(C)C[C@H]1C(=O)O[C@H](Cc2ccc(Cn3cc4c(n3)CCOC4)cc2)C(=O)N(C)[C@@H](CC(C)C)C(=O)O[C@H](C)C(=O)N(C)[C@@H](CC(C)C)C(=O)O[C@H](Cc2ccccc2)C(=O)N(C)[C@@H](CC(C)C)C(=O)O[C@H](C)C(=O)N1C` [Example 10-28, (3S,6R,9S,12R,15S,18R,21S,24R)-6-benzyl-18-(4-((6,7-dihydropyrano[4,3-c]pyrazol-2(4H)-yl)methyl)benzyl)-3,9,15,21-tetraisobutyl-4,10,12,16,22,24-hexamethyl-1,7,13,19-tetraoxa-4,10,16,22-tetraazacyclotetracosan-2,5,8,11,14,17,20,23-octaone] it is 0.01 to 0.1 µM. In the case of `CC(C)C[C@H]1C(=O)O[C@H](Cc2ccc(Cn3ccnc3C(C)(C)C)cc2)C(=O)N(C)[C@@H](CC(C)C)C(=O)O[C@H](C)C(=O)N(C)[C@@H](CC(C)C)C(=O)O[C@H](Cc2ccc(Cn3ccnc3C(C)(C)C)cc2)C(=O)N(C)[C@@H](CC(C)C)C(=O)O[C@H](C)C(=O)N1C` [Example 6-6, (3S,6R,9S,12R,15S,18R,21S,24R)-6,18-bis[[4-[(2-tert-butylimidazol-1-yl)methyl]phenyl]methyl]-3,9,15,21-tetraisobutyl-4,10,12,16,22,24-hexamethyl-1,7,13,19-tetraoxa-4,10,16,22-tetrazacyclotetracosane-2,5,8,11,14,17,20,23-octaone] it was 0.01 to 0.1 µM; in that of `CC(C)C[C@H]1C(=O)O[C@H](Cc2ccc(Cn3cc(-c4ccc(F)cc4)cn3)cc2)C(=O)N(C)[C@@H](CC(C)C)C(=O)O[C@H](C)C(=O)N(C)[C@@H](CC(C)C)C(=O)O[C@H](Cc2ccccc2)C(=O)N(C)[C@@H](CC(C)C)C(=O)O[C@H](C)C(=O)N1C` [Example 2-5, (3S,6R,9S,12R,15S,18R,21S,24R)-6-benzyl-18-[[4-[[4-(4-fluorophenyl)pyrazol-1-yl]methyl]phenyl]methyl]-3,9,15,21-tetraisobutyl-4,10,12,16,22,24-hexamethyl-1,7,13,19-tetraoxa-4,10,16,22-tetrazacyclotetracosane-2,5,8,11,14,17,20,23-octaone], 0.01 to 0.1 µM. Take `CCOc1cnn(Cc2ccc(C[C@H]3OC(=O)[C@H](CC(C)C)N(C)C(=O)[C@@H](C)OC(=O)[C@H](CC(C)C)N(C)C(=O)[C@@H](Cc4ccc(CO)cc4)OC(=O)[C@H](CC(C)C)N(C)C(=O)[C@@H](C)OC(=O)[C@H](CC(C)C)N(C)C3=O)cc2)c1` [Example 2-39, (3S,6R,9S,12R,15S,18R,21S,24R)-6-(4-((4-ethoxy-1H-pyrazol-1-yl)methyl)benzyl)-18-(4-(hydroxymethyl)benzyl)-3,9,15,21-tetraisobutyl-4,10,12,16,22,24-hexamethyl-1,7,13,19-tetraoxa-4,10,16,22-tetraazacyclotetracosan-2,5,8,11,14,17,20,23-octaone]: the minimal effective concentration was 0.001 to 0.01 µM.

In the case of `CC(C)C[C@H]1C(=O)O[C@H](Cc2ccc(Cn3ccc(C#N)n3)cc2)C(=O)N(C)[C@@H](CC(C)C)C(=O)O[C@H](C)C(=O)N(C)[C@@H](CC(C)C)C(=O)O[C@H](Cc2ccc(Cn3ccc(C#N)n3)cc2)C(=O)N(C)[C@@H](CC(C)C)C(=O)O[C@H](C)C(=O)N1C` [Example 1b-103, 1,1′-(((((2R,5S,8R,11S,14R,17S,20R,23S)-5,11,17,23-tetraisobutyl-4,8,10,16,20,22-hexamethyl-3,6,9,12,15,18,21,24-octaoxo-1,7,13,19-tetraoxa-4,10,16,22-tetraazacyclotetracosane-2,14-diyl)bis(methylene))bis(4,1-phenylene))bis(methylene))bis(1H-pyrazole-3-carbonitrile)], the minimal effective concentration lay within 0.001 to 0.01 µM.
